Measured values published in patent publication US8314150B2, “Kinase protein binding inhibitors” (priority 2008, dated 2012).

Experiments:
paxillin phosphorylation = assay: Western blotting p-paxillin, Panc-1 cells; assay type: cell-based, human; conditions: 24 hours
Procedure: (§1) Cell Viability Assay—The Cells were treated with peptides for 24 hours at different peptide concentrations. The 3-(4,5-dimethylthiazol-2-yl)-5-(3-carboxymethoxyphenyl)-2-(4-sulfophenyl)-2H-tetrazolium compound from Promega Viability kit (Madison, Ill.) was added, and the cells were incubated at 37° C. for 1-2 hours. The optical density on 96-plate was analyzed with a microplate reader at 490 nm to determine cell viability. In addition, cells were stained with trypan blue after 24 hours of treatment with Y15 and the percent of cells that stained positive were determined with a hemacytometer. […] Then 2% SDS was added to the dried plated and OD at 590 nm was measured for detecting cell adhesion. […] Protein concentrations were determined using a Bio-Rad Kit. The boiled samples were loaded on Ready SDS-10% PAGE gels (Bio Rad, Inc) and used for Western blot analysis with the protein-specific antibody. […] Detachment Assay—Cells were plated with and without inhibitors for 24 hours, and detached and attached cells were counted in a hemocytometer. We calculated the percent of detachment by dividing the number of detached cells by the total number of cells. The percent of detached cells was calculated in three independent experiments. […] For each experiment 300 cells per treatment were counted. […]

FAK-Y397 phosphorylation = assay: FAK-Y397 levels in Panc-1 tumors by Western blotting; assay type: in vivo, mice; conditions: 30 mg/kg, day 36, vs PBS
Procedure: as §1

[1] = system: Y397 phosphorylation of FAK; assay: Western blotting with Y397 FAK antibody, BT474 cells; assay type: cell-based
Procedure: Cell Viability Assay—The Cells were treated with peptides for 24 hours at different peptide concentrations. The 3-(4,5-dimethylthiazol-2-yl)-5-(3-carboxymethoxyphenyl)-2-(4-sulfophenyl)-2H-tetrazolium compound from Promega Viability kit (Madison, Ill.) was added, and the cells were incubated at 37° C. for 1-2 hours. The optical density on 96-plate was analyzed with a microplate reader at 490 nm to determine cell viability. In addition, cells were stained with trypan blue after 24 hours of treatment with Y15 and the percent of cells that stained positive were determined with a hemacytometer. Cell adhesion assay—The poly-L-Lysine or Collagen (5 μg/ml) coated 96-well plates were blocked with the blocking buffer (medium with 0.5% BSA) for 1 hour at 37 C. The cells were pre-treated with drugs for 3 hours and plated for adhesion at 4×10^5 cells. Cells were incubated at 37 C for 1 hour, fixed in 3.7% formaldehyde, washed in 0.1% BSA in PBS and stained with crystal violet (5 mg/ml in 2% ethanol) for 10 minutes. Then 2% SDS was added to the dried plated and OD at 590 nm was measured for detecting cell adhesion. Western Blotting—Cells or homogenized tumor samples were washed twice with cold 1×PBS and lysed on ice for 30 minutes in a buffer containing: 50 mM Tris-HCl (pH 7.5), 150 mM NaCl, 1% Triton-X, 0.5% NaDOC, 0.1% SDS, 5 mM EDTA, 50 mM NaF, 1 mM NaVO3, 10% glycerol and protease inhibitors: 10 μg/ml leupeptin, 10 μg/ml PMSF and 1 μg/ml aprotinin. The lysates were cleared by centrifugation at 10,000 rpm for 30 minutes at 4° C. Protein concentrations were determined using a Bio-Rad Kit. The boiled samples were loaded on Ready SDS-10% PAGE gels (Bio Rad, Inc) and used for Western blot analysis with the protein-specific antibody. Immunoblots were developed with chemiluminescence Renaissance reagent (NEN Life Science Products, Inc). Immunoprecipitation. Immunoprecipitation was performed according to the standard protocol. In brief, the pre-cleared lysates with equal amount of protein were incubated with 1 μg of primary antibody and 30 μl A/G agarose beads overnight at 4° C. The precipitates were washed with lysis buffer three times and re-suspended in 2× Laemmli buffer. The boiled samples were used for Western blotting, as described above. Detachment Assay—Cells were plated with and without inhibitors for 24 hours, and detached and attached cells were counted in a hemocytometer. We calculated the percent of detachment by dividing the number of detached cells by the total number of cells. The percent of detached cells was calculated in three independent experiments. Apoptosis Assay. Detached cells were collected and fixed in 3.7% formaldehyde in 1×PBS solution for the apoptosis assay. Detection of apoptosis was done with Hoechst 33342 staining. The percent of apoptotic cells was calculated as a ratio of apoptotic detached cells divided by the total number of cells in three independent experiments in several fields with the fluorescent microscope. For each experiment 300 cells per treatment were counted. In vitro Kinase Assay—10 μCi of [γ-^32P]-ATP in a kinase buffer (20 mM HEPES, pH 7.4, 5 mM MgCl2, 5 mM MnCl2, 0.1 mM Na3VO4 with 0.1 μg of purified FAK protein were incubated in a kinase buffer with 10 μCi of [γ-^32P]-ATP. The kinase reaction was performed for 5 minutes at room temperature and stopped by addition of 2× Laemmli buffer. Proteins were separated on a Ready SDS-10% PAGE gel, and the phosphorylated enolase was visualized by autoradiography. KinaseProfiler screening—Kinase specificity screening was performed with KinaseProfiler™ Service (Millipore) available on http://www.millipore.com/drugdiscovery/dd3/KinaseProfiler. The screening was performed with 1 μM Y15, 10 μM ATP and kinase substrates on 9 recombinant kinases according to Millipore protocol. Tumor Growth in Nude Mice—Female nude mice, 6 weeks old, were purchased from Harlan Laboratory. […]

pancreatic tumor cells = assay: Cell adhesion assay on collagen-coated plates, pancreatic tumor cells; assay type: cell-based, human
Procedure: as §1

[2] = system: Y118-paxillin phosphorylation; assay: Western blotting Y118-paxillin, BT474 cells; assay type: cell-based; conditions: 100 μM, 24 hours
Procedure: as §1

Panc-1 tumor cells = assay: Panc-1 subcutaneous tumor growth in nude mice; assay type: in vivo; conditions: 30 mg/kg each, daily intraperitoneal
Procedure: as §1

Cl.Cl.Cl.Cl.Nc1cc(N)c(N)cc1N [Y15, 1,2,4,5-benzenetetraamine tetrahydrochloride]
phosphorylation of FAK downstream substrate paxillin (paxillin phosphorylation): blocked | Y397 phosphorylation in tumors (FAK-Y397 phosphorylation): lower levels of Y397 phosphorylation | total FAK level ([1]; 100 μM): down-regulates FAK | treatment time enough to completely block Y397-phosphorylation ([1]; 100 μM): 8 h | inhibition of Y397 phosphorylation compared with TAE226 ([1]; 100 μM dose, 24 hours): same inhibition as TAE226 | Y397 phosphorylation after 4 hours ([1]; 100 μM, 4 hours): did not significantly decreased Y397 phosphorylation | Y397 phosphorylation of FAK ([1]; 100 μM, 24 hours): specifically inhibited Y397 phosphorylation of FAK | dose with high inhibition of Y397 phosphorylation ([1]; 24 hours): 50 µM | dose with maximal inhibition of Y397 phosphorylation ([1]; 24 hours): 100 µM | cell adhesion (pancreatic tumor cells; 50 μM): decreased adhesion in a similar fashion to 50 μM of TAE226 | dose from which cell adhesion was significantly decreased (pancreatic tumor cells; collagen-coated plates): 10 µM | phosphorylation of Y118-paxillin [2]: inhibited | tumor growth (Panc-1 tumor cells): inhibited tumor growth even better than gemcitabine alone
